In patent US20260315461A1, “NEW 5H-PYRROLO[3,2-B:5,4-C']DIPYRIDINE DERIVATIVES AND 6,7,8,9-TETRAHYDRO-5H-PYRROLO[3,2-B:5,4-C']DIPYRIDINE USEFUL IN THE TREATMENT OF CANCER” (INSTITUT REGIONAL DU CANCER DE MONTPELLIER, priority 2023, published 2026):
Structures can show the parent of a compound that is named as a salt.

Legend:
[1] = system: Hpac/ZR75.1 cells; assay: Cell survival, Sulforhodamine B assay (SRB assay), cancer cells not exhibiting recruitment of MDM2 to chromatin; assay type: cell-based
Protocol: (§1) Cell survival after MDM2 inhibitor treatment (IC50) was determined using the Sulforhodamine B assay (SRB assay).
(§2) Cells were seeded in 96-well plates (Sarsted) in complete DMEM medium as to obtain triplicates for each condition (5 000 cells/well). After 24 hours, serial dilutions of the indicated compounds were added to the cells. Then 48 hours later, cells were fixed by adding a 10% Trichloroacetic acid solution and stained with a 0,4% SRB solution in 1% acetic acid. Fixed SRB was finally dissolved in 10 mM Tris-HCl solution and 560 nm absorbance was read using a PHERAstar FSX plate reader.

[2] = target: T1, Chromatin-MDM2 (Homo sapiens, UniProt Q00987); assay: MDM2 degradation by western blot and immunofluorescence, chromatin-bound MDM2 (IB111 cells dependent on C-MDM2); assay type: cell-based; conditions: IB111 (presence of C-MDM2), degradation efficacy; for Dmax: human
T1 construct: endogenous in cells; host or cells: IB111
Protocol: (§3) MDM2 degradation is measured by western blot and immunofluorescence.
(§4) Cells were seeded in 6-well plates (Sarsted) in complete DMEM medium as to obtain triplicates for each condition (500 000 cells/well). After 24 hours, the compounds were added to the cells. Then, 18 hours later cells were collected for western blotting or immunofluorescence. • Western Blot: Cells were collected in Laemmli buffer, boiled and analyzed in 8% acrylamide gel. • Immunofluorescence: Cancer cells were fixed with paraformaldehyde (PFA) 4% for 15 minutes then permeabilized for 15 minutes at RT with phosphate-buffered saline (PBS) Triton 0.1% and blocked with Phosphate buffered saline-[…] (PBS-BSA) 0.3% for 1 hour at RT before overnight incubation at 4° C. with an anti-mouse monoclonal antibody against MDM2 (MABE340 Millipore). Immunodetection was performed using an Alexa 488-conjugated anti-mouse IgG antibody (Thermo Fisher) for 45 minutes at RT. Cover glasses were mounted with Mowiol (Biovalley) and DAPI (Sigma) before analysis on a Zeiss apotome.

[3] = target: T2, Cytoplasmic-MDM2 (Homo sapiens, UniProt Q00987); assay: MDM2 degradation by western blot and immunofluorescence, cytoplasmic MDM2 (Hpac/ZR75.1 cells, absence of C-MDM2); assay type: cell-based; conditions: Hpac/ZR75.1 (absence of C-MDM2), degradation efficacy; for Dmax: human
T2 construct: endogenous in cells; host or cells: Hpac/ZR75.1
Protocol: as §3, §4

[4] = system: liposarcoma cells IB111; assay: In vivo anti-tumor efficacy in nude mice engrafted with liposarcoma cells IB111; conditions: 20 mg/kg i.p. daily for 3 weeks, from tumor 100 mm^3
Protocol: In order to support the in vitro results, in vivo evaluation of the anti-tumor efficacy was performed on compound (4) according to the present invention having evidenced the antitumoral activity in examples 9 and 10 above.
10 mice per group were engrafted with liposarcoma cells IB111. Mice were housed in a pathogen-free barrier facility in accordance with the regional ethics committee for animal [COMPOUND LEFT OUT] (n° CEEA-LR-12067). When tumor reached 100 mm^3, the compound of formula (I) was administered by intra peritoneal i.p. injection at the dose of 20 mg/kg daily for 3 weeks.

[5] = system: IB111 cells; assay: Cell survival, Sulforhodamine B assay (SRB assay), cancer cells exhibiting recruitment of MDM2 to chromatin; assay type: cell-based
Protocol: as §1, §2

[6] = system: p53 wild type, p53 mutant and p53 null cancer cells; conditions: cited from earlier work
[7] = system: MDM2 protein; conditions: WO2016/049453 and Wang et al. 2014; cited from earlier work
[8] = system: MDM2-p53 interaction; conditions: WO2016/049453 and Wang et al. 2014; cited from earlier work

T1 sequence (Q00987 whole entry): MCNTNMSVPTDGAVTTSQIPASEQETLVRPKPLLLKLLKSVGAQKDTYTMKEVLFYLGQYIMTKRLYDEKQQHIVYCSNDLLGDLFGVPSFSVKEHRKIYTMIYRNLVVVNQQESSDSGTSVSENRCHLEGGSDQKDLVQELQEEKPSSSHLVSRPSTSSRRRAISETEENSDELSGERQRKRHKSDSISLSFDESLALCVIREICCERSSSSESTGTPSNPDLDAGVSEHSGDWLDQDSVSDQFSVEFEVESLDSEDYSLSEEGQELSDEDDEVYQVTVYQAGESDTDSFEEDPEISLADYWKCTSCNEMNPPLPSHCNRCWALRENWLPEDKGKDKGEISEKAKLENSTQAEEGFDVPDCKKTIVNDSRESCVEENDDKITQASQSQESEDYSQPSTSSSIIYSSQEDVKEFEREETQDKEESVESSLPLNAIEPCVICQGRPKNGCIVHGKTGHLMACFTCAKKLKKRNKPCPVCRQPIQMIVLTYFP
T2 sequence (Q00987 whole entry): as above

| SMILES | efficacy on cancer cells not exhibiting recruitment of MDM2 to chromatin (cell survival) [1] | Chromatin-MDM2 degradation [2] | Dmax [3] [%] | Dmax [2] [%] | Cytoplasmic-MDM2 degradation [3] | also measured |
| --- | --- | --- | --- | --- | --- | --- |
| COc1ccc2[nH]c3c(-c4cccc5ccccc45)nccc3c2n1 [Compound 1, 2-methoxy-6-(naphthalen-1-yl)-5H-pyrrolo[3,2-b:5,4-c′]dipyridine] | not efficient | +++ (+++≥80%) | – | – | – | – |
| COc1ccc2[nH]c3c(-c4ccnc5nccnc45)nccc3c2n1 [Compound 3, 2-methoxy-6-(pyrido[2,3-b]pyrazin-8-yl)-5H-pyrrolo[3,2-b:5,4-c′]dipyridine] | – | – | < 25 | 25 to 40 | – | – |
| COc1ccc2[nH]c3c(-c4cccc5ccccc45)nccc3c2n1.Cl [Compound 4, 2-methoxy-6-(naphthalen-1-yl)-5H-pyrrolo[3,2-b:5,4-c′]dipyridine hydrochloride] | not efficient | +++ (+++≥80%) | – | – | − (<25%: no degradation: indicated“−” in the table) | tumor reduction [4]: greater than 75% |
| COc1ccc2[nH]c3c(-c4ccnc5ccccc45)nccc3c2n1 [Compound 6, 2-methoxy-6-(quinolin-4-yl)-5H-pyrrolo[3,2-b:5,4-c′]dipyridine] | – | – | < 25 | 25 to 40 | – | – |
| COc1ccc2[nH]c3c(-c4cccc5ccccc45)nccc3c2n1.O=C(O)/C=C/C(=O)O [Compound 10, 2-methoxy-6-(naphthalen-1-yl)-5H-pyrrolo[3,2-b:5,4-c′]dipyridine fumarate] | not efficient | +++ (+++≥80%) | – | – | − (<25%: no degradation: indicated“−” in the table) | – |
| COc1ccc2[nH]c3c(-c4cccc5ccccc45)nccc3c2n1.O=C(O)CC(O)(CC(=O)O)C(=O)O [Compound 11, 2-methoxy-6-(naphthalen-1-yl)-5H-pyrrolo[3,2-b:5,4-c′]dipyridine 2-hydroxypropane-1,2,3-tricarboxylate] | not efficient | +++ (+++≥80%) | < 25 | – | – | – |
| COc1ccc2[nH]c3c(-c4cccc5ccccc45)nccc3c2n1.O=P(O)(O)O [Compound 12, 2-methoxy-6-(naphthalen-1-yl)-5H-pyrrolo[3,2-b:5,4-c′]dipyridine phosphate] | not efficient | – | – | – | − (<25%: no degradation: indicated“−” in the table) | – |
| COc1ccc2[nH]c3c(-c4cccc5ccccc45)nccc3c2n1 [Compound 13, 2-methoxy-6-(naphthalen-1-yl)-5H-pyrrolo[3,2-b:5,4-c′]dipyridine sulfate] | – | – | – | – | − (<25%: no degradation: indicated“−” in the table) | Chromatin-MDM2 degradation ([2]; sulfate): ++ (40%≤++<80%) |
| COc1ccc2[nH]c3c(-c4cccc5c4CCCC5)nccc3c2n1 [Compound 14, 2-methoxy-6-(5,6,7,8-tetrahydronaphthalen-1-yl)-5H-pyrrolo[3,2-b:5,4-c′]dipyridine] | not efficient | – | < 25 | ≥ 80 | – | – |
| COc1ccc2[nH]c3c(-c4ccc(F)c5ccccc45)nccc3c2n1 [Compound 15, 6-(4-fluoronaphthalen-1-yl)-2-methoxy-5H-pyrrolo[3,2-b:5,4-c′]dipyridine] | not efficient | – | < 25 | 40 to 80 | – | – |
| COc1ccc2[nH]c3c(-c4cccc5c4CCCC5)nccc3c2n1.Cl [Compound 16, 2-methoxy-6-(5,6,7,8-tetrahydronaphthalen-1-yl)-5H-pyrrolo[3,2-b:5,4-c′]dipyridine hydrochloride] | not efficient | +++ (+++≥80%) | – | – | − (<25%: no degradation: indicated“−” in the table) | – |
| COc1ccc2[nH]c3c(-c4ccc(F)c5ccccc45)nccc3c2n1.Cl [Compound 17, 6-(4-fluoronaphthalen-1-yl)-2-methoxy-5H-pyrrolo[3,2-b:5,4-c′]dipyridine hydrochloride] | – | – | – | – | − (<25%: no degradation: indicated“−” in the table) | – |
| Clc1ccc2[nH]c3c(-c4cccc5ccccc45)nccc3c2n1 [Compound 18, 2-chloro-6-(naphthalen-1-yl)-5H-pyrrolo[3,2-b:5,4-c′]dipyridine] | – | – | < 25 | 25 to 40 | – | – |
| Cl.Clc1ccc2[nH]c3c(-c4cccc5ccccc45)nccc3c2n1 [Compound 19, 2-chloro-6-(naphthalen-1-yl)-5H-pyrrolo[3,2-b:5,4-c′]dipyridine hydrochloride] | not efficient | ++ (40%≤++<80%) | – | – | − (<25%: no degradation: indicated“−” in the table) | IC50 [5]: < 500 nM |
| COc1ccc2[nH]c3c(-c4cc(F)cc5ccccc45)nccc3c2n1.Cl [Compound 20, 6-(3-fluoronaphthalen-1-yl)-2-methoxy-5H-pyrrolo[3,2-b:5,4-c′]dipyridine hydrochloride] | not efficient | – | < 25 | 40 to 80 | – | IC50 [5]: < 500 nM |
| COc1ccc2[nH]c3c(-c4cccc5c(F)cccc45)nccc3c2n1 [Compound 21, 6-(5-fluoronaphthalen-1-yl)-2-methoxy-5H-pyrrolo[3,2-b:5,4-c′]dipyridine] | – | – | < 25 | 25 to 40 | – | – |
| COc1ccc2[nH]c3c(-c4cccc5c(F)cccc45)nccc3c2n1.Cl [Compound 22, 6-(5-fluoronaphthalen-1-yl)-2-methoxy-5H-pyrrolo[3,2-b:5,4-c′]dipyridine hydrochloride] | – | + (25%≤+<40%) | – | – | − (<25%: no degradation: indicated“−” in the table) | – |
| COc1ccc2[nH]c3c(-c4cccc5cccc(F)c45)nccc3c2n1 [Compound 23, 6-(8-fluoronaphthalen-1-yl)-2-methoxy-5H-pyrrolo[3,2-b:5,4-c′]dipyridine hydrochloride] | – | – | < 25 | 25 to 40 | – | – |
| c1ccc2c(-c3nccc4c3[nH]c3ccc(OC5CC5)nc34)cccc2c1 [Compound 24, 2-cyclopropoxy-6-(naphthalen-1-yl)-5H-pyrrolo[3,2-b:5,4-c′]dipyridine] | not efficient | – | < 25 | ≥ 80 | – | IC50 [5]: < 500 nM |
| Cl.c1ccc2c(-c3nccc4c3[nH]c3ccc(OC5CC5)nc34)cccc2c1 [Compound 25, 2-cyclopropoxy-6-(naphthalen-1-yl)-5H-pyrrolo[3,2-b:5,4-c′]dipyridine hydrochloride] | not efficient | +++ (+++≥80%) | – | – | − (<25%: no degradation: indicated“−” in the table) | – |
| COc1ccc2[nH]c3c(-c4cccc5ccccc45)nccc3c2c1 [SP-141] | – | – | – | – | – | anticancer activity [6]: able to exert anticancer activity in p53 wild type, p53 mutant and p53 null cancer cells; binding to MDM2 protein [7]: directly binding to MDM2 protein; inhibition of the MDM2-p53 interaction [8]: inhibiting the MDM2-p53 interaction |
